Literature values in paper PMC13601336 (Frontiers in Pharmacology, 2026).

Molecular target: T1, UGT1A1 (Homo sapiens, UniProt P22309)
T1 construct: purchased BD Gentest (Woburn, MA, USA)
T1 sequence (P22309 26-533): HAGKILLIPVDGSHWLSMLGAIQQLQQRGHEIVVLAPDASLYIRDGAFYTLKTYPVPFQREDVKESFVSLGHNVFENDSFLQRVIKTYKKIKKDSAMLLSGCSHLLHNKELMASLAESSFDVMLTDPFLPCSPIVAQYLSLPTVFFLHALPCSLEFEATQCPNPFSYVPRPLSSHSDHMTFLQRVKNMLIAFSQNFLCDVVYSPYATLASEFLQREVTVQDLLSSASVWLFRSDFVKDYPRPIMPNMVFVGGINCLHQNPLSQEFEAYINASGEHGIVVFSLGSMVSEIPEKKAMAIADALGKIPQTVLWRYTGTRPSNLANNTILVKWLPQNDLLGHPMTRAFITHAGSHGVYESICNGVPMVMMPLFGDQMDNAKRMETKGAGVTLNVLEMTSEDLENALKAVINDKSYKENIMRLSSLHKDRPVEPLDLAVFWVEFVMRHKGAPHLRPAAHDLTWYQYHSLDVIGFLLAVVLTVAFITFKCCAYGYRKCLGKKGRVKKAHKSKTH
Conditions: ref Zhang et al., 2021

- Ki: 2.18 µM
SMILES: O=c1c(O)c(-c2ccc(O)c(O)c2)oc2cc(O)cc(O)c12 [Quercetin, quercetin]
